US20080045559A1, “TOCOPHEROL-MODIFIED THERAPEUTIC DRUG COMPOUNDS” (SONUS PHARMACEUTICALS, INC., priority 2003, published 2008)

Tests used:
Test in all cases: In vitro cytotoxicity GI50, Example 48
Format in all cases: cell-based
SKOV-3 (OVARIAN) = details: Homo sapiens, SK-OV-3, Alamar Blue or Sulfarhodamine B
H460 (NSCLC) = details: Homo sapiens, NCI-H460; H460; Alamar Blue or Sulfarhodamine B; read-out: GI50
HCT-116 (COLON) = details: Homo sapiens, HCT-116, HCT-116; Alamar Blue or Sulfarhodamine B
Protocol: The study was performed using either Alamar Blue or Sulfarhodamine B assays.

HCT-15 (COLON) = details: Homo sapiens, Alamar Blue or Sulfarhodamine B

CC[C@@]1(O)C(=O)OCc2c1cc1n(c2=O)Cc2cc3cc(OC(=O)CCC(=O)Oc4c(C)c(C)c5c(c4C)CC[C@@](C)(CCC[C@H](C)CCC[C@H](C)CCCC(C)C)O5)ccc3nc2-1 [VESA-10-HO-CPT, Butanedioic acid, (2R)-3,4-dihydro-2,5,7,8-tetramethyl-2-[(4R,8R)-4,8,12-trimethyltridecyl]-2H-1-benzopyran-6-yl (4S)-4-ethyl-3,4,12,14-tetrahydro-4-hydroxy-3,14-dioxo-1H-pyrano[3′,4′:6,7]indolizino[1,2-b]quinolin-9-yl ester]
GI50 (SKOV-3 (OVARIAN)): 97.7 nM | GI50 (H460 (NSCLC)): 155 nM | GI50 (HCT-116 (COLON)): 186 nM | GI50 (HCT-15 (COLON)): 1290 nM
